Experimental data as given in US7307063B2, “Melanocortin metallopeptides for treatment of sexual dysfunction” (Palatin Technologies, Inc., priority 2001, dated 2007).
Non-standard residues stand in square brackets, D forms with d. Nle = CCCC[C@H](N)C(=O)O

Columns and labels:
MC4-R [1] = molecular target: T1, MC4-R (Homo sapiens, UniProt P32245); test: Functional activity assay: intracellular cAMP in HEK-293 cells expressing MC4-R; format: cell-based; conditions: Re-complexed peptide
T1 construct: expressed in transfected cells; host or cells: HEK-293
Protocol: (§1) Rhenium-complexed metallopeptides were prepared, with functional evaluation of peptides at MC1-R and MC4-R performed by measuring the accumulation of intracellular cAMP in HEK-293 cells expressing MC4-R or B16-F10 mouse melanoma cells expressing MC1-R. Antagonistic activity was determined by measuring the inhibition of α-MSH-induced cAMP levels following exposure to peptide. Cells, suspended in Earle's Balanced Salt Solution containing 10 mM HEPES, pH 7.5, 5 mM MgCl2, 1 mM glutamine, 0.1% albumin and 0.6 mM 3-isobutyl-1-methyl-xanthine, a phosphodiesterase inhibitor, were plated in 96 well plates at a density of 0.5×10^5 cells per well. Cells were incubated with the test peptides in the presence or absence of α-MSH for 1 hour at 37° C. cAMP levels were measured by EIA (Amersham) in the cell lysates. Data analysis and EC50 values were determined using nonlinear regression analysis with Prism Graph-Pad software.

Male Sprague-Dawley rats [2] = test: Combination penile erection behavior studies: antagonist IV before IN agonist; format: in vivo, rat;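 as to Mean Penile Erections/Rat: Erections counted over 30 min observation after IN dosing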;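 as to Percent with Penile Erections: Erections counted over 30 min observation after IN dosing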
Protocol: Conditions were as in Example 3 except as noted. Groups of 5-6 rats received an IV dose of either placebo or antagonist 5 minutes prior to an IN dose of either placebo or agonist. Two antagonists were used: ReO[Heptanoyl-Ser(Bzl)-D-Nal 2′-Arg-Trp-Cys-NH2] and SHU9119 (Hruby V J, Lu D, Sharma S D, et al. J Med Chem 38:3454-3461 (1995)), Ac-Nle-cyclo(-Asp-His-D-Nal 2′-Arg-Trp-Lys)-NH2. The agonist used was Ac-Nle-cyclo(-Asp-His-D-Phe-Arg-Trp-Lys)-OH. Immediately after IN treatment, rats were placed into individual Lucite cages for observation. […] In combination studies, the antagonist was dosed IV 5 minutes prior to a 50 μg/kg IN dose of Ac-Nle-cyclo(-Asp-His-D-Phe-Arg-Trp-Lys)-OH.
These studies were conducted as described above in Example 4 with metallopeptide antagonists administered IV five minutes before IN administration of 50 μg/kg Ac-Nle-cyclo(-Asp-His-D-Phe-Arg-Trp-Lys)-OH. […] The potency of these antagonists also correlated with their relative binding affinities in the in vitro binding assays.

Male Sprague-Dawley rats [3] = test: as above; format: in vivo, rat; conditions: effect induced by 50 µg/kg intranasal Ac-Nle-cyclo(-Asp-His-D-Phe-Arg-Trp-Lys)-OH
MC4-R [4] = molecular target: T1, MC4-R; test: Competitive binding assay: inhibition of 125I-NDP-α-MSH binding to HEK-293 membranes with cloned human receptor subtype 4; conditions: Table 1
Summary of the method: (§2)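 Rhenium-complexed test peptides at a chosen concentration were assayed for inhibition of 125I-NDP-α-MSH binding to receptor membranes (HEK-293 for cloned human subtypes; B16-F10 cells for MC1-R). Non-specific binding was defined with 1 μM α-MSH, and cpm were normalized to specific binding to give percent inhibition.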

MC1-R [5] = molecular target: T2, MC1-R (Mus musculus, UniProt Q01727); test: Competitive binding assay: inhibition of 125I-NDP-α-MSH binding to membranes from B16-F10 mouse melanoma cells; conditions: Table 1
T2 construct: MC1-R membranes were isolated from B16—F10 mouse melanoma cells; endogenous in cells; host or cells: B16-F10 mouse melanoma cells
Summary of the method: as §2

Male Sprague-Dawley rats [6] = test: Penile erection behavior dose response animal studies; format: in vivo, rat; conditions: for Mean Penile Erections/Rat: 30 min observation; for Induction of penile erections (PEs) in rat model, in words: rats, IV
Protocol: For behavioral experiments test solutions of rhenium-complexed metallopeptides were freshly prepared in DMSO and diluted in saline. Male Sprague-Dawley rats (Taconic) weighing 200-250 g were kept on a 12 hour on/off light cycle with food and water ad libitum. All behavioral studies were performed between 10 a.m. and 5 p.m. Groups of 3-10 rats were treated with the rhenium-complexed metallopeptides at a variety of doses via intravenous (IV) injection. In a second experimental paradigm, rats were treated a selected compound intranasally (IN) using a micropipet to deliver 25 μl of solution into one nostril. Immediately after treatment, rats were placed into individual Lucite cages (27 cm long, 16 cm wide and 25 cm high) for behavioral observation.

hMC5-R = molecular target: T3, hMC5-R (Homo sapiens, UniProt P33032); test: Competitive binding assay: inhibition of 125I-NDP-α-MSH binding to HEK-293 membranes with cloned human receptor subtype 5; conditions: Table 1
T3 construct: expressed in transfected cells; host or cells: HEK-293
Summary of the method: as §2

hMC3-R = molecular target: T4, hMC3-R (Homo sapiens, UniProt P41968); test: Competitive binding assay: inhibition of 125I-NDP-α-MSH binding to HEK-293 membranes with cloned human receptor subtype 3; conditions: Table 1
T4 construct: expressed in transfected cells; host or cells: HEK-293
Protocol: Rhenium-complexed metallopeptides of the formulas given in Table 1 were prepared, with the metallopeptides complexed with rhenium using the rhenium transfer agent ReOCl3(PPh3)2 in the presence of 1,8-Diazabicyclo[5,4,0] undec-7-ene as a base, as disclosed in International Application PCT/US00/16396, filed Jun. 14, 2000, Melanocortin Metallopeptide Constructs, Combinatorial Libraries and Applications, incorporated by reference herein. Affinities of compounds were measured using membranes from HEK-293 cells containing cloned human melanocortin receptor subtypes 3, 4 and 5. MC1-R membranes were isolated from B16—F10 mouse melanoma cells. The assay tube also contained a chosen concentration of the test peptide of this invention, complexed to a rhenium metal ion as indicated, for determining its efficacy in inhibiting the binding of ^125I-NDP-α-MSH to its receptor. Non-specific binding was measured by complete inhibition of binding of ^125I-NDP-α-MSH in the assay with the presence of 1 μM α-MSH. 100% specific binding was defined as the difference in radioactivity (cpm) bound to cell membranes in the absence and presence of 1 μM α-MSH. The cpm obtained in presence of test compounds were normalized with respect to 100% specific binding to determine the percent inhibition of ^125I-NDP-α-MSH binding.

MC1-R [7] = molecular target: T2, MC1-R; test: Functional activity assay: intracellular cAMP in B16-F10 mouse melanoma cells expressing MC1-R; format: cell-based; conditions: Re-complexed peptide
Protocol: as §1

[8] = combination: antagonist 200 μg/kg IV 5 min prior to 50 μg/kg IN Ac-Nle-cyclo(-Asp-His-D-Phe-Arg-Trp-Lys)-OH

T4 sequence (P41968 whole entry): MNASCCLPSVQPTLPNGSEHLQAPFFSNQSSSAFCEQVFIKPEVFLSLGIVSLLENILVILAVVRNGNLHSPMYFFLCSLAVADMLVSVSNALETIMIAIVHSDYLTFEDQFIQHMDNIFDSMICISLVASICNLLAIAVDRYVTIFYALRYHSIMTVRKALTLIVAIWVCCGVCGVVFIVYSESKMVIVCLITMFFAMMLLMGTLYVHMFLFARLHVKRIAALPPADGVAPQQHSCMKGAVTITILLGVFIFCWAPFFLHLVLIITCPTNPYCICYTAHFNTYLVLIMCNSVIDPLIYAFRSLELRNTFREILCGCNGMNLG
T2 sequence (Q01727 whole entry): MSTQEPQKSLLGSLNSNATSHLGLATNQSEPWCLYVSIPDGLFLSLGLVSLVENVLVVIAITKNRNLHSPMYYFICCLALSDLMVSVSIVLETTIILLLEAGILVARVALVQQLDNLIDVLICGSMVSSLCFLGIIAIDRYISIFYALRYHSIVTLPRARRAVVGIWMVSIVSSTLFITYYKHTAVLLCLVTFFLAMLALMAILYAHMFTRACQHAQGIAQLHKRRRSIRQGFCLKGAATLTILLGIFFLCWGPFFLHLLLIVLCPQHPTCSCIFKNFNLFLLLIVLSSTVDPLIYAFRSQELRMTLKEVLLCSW
T3 sequence (P33032 whole entry): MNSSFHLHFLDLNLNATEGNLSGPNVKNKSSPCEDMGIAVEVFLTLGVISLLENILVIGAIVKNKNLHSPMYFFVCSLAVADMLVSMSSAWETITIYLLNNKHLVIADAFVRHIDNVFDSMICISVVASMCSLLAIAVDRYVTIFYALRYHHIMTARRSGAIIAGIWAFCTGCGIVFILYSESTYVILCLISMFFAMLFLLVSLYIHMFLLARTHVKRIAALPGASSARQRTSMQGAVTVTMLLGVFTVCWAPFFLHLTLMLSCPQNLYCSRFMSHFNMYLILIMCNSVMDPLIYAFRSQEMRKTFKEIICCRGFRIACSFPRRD
T1 sequence (P32245 whole entry): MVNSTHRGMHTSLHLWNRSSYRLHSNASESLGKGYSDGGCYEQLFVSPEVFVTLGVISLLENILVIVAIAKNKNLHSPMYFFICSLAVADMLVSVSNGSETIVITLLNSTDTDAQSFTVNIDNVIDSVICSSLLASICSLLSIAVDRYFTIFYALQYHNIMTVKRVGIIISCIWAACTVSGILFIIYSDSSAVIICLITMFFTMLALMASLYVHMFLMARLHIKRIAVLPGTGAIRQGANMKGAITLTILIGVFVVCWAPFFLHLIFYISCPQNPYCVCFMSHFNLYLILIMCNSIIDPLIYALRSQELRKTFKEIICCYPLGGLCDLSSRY

| Substance | Functional activity at MC4-R (cAMP accumulation; inhibition of α-MSH-induced cAMP) (MC4-R [1]) | Percent PE Inhibition (Male Sprague-Dawley rats [3]; antagonist 100 μg/kg IV) [%] | Percent PE Inhibition (Male Sprague-Dawley rats [3]; antagonist 150 μg/kg IV) [%] | % Inhibition of Binding hMC4-R (MC4-R [4]; 1 μM Re-complexed peptide) [%] | % Inhibition of Binding MC1-R (MC1-R [5]; 1 μM Re-complexed peptide) [%] | Mean Penile Erections/Rat (Male Sprague-Dawley rats [6]; IV 150 μg/kg) | Induction of penile erections (PEs) in rat model, in words (Male Sprague-Dawley rats [6]) | % Inhibition of Binding hMC5-R (hMC5-R; 1 μM Re-complexed peptide) [%] | % Inhibition of Binding hMC3-R (hMC3-R; 1 μM Re-complexed peptide) [%] | other results |
| --- | --- | --- | --- | --- | --- | --- | --- | --- | --- | --- |
| Heptanoyl-Ser(Bzl)-D-Nal 2′-Arg-Trp-Cys-NH2 | MC4-R antagonists | 14.28 | 50 | 97 | 19 | 0 | inactive in inducing PEs | 98 | 64 | Inhibitory effect on agonist-induced PE response, in words (Male Sprague-Dawley rats [2]; IV 0, 100, 150 and 200 μg/kg, FIG. 8): increased with dose; Mean Penile Erections/Rat (Male Sprague-Dawley rats [2]; antagonist alone, 200 μg/kg IV): 0; Percent with Penile Erections (Male Sprague-Dawley rats [2]; antagonist alone, 200 μg/kg IV): 0%; Mean Penile Erections/Rat (Male Sprague-Dawley rats [2]; [8]): 0; Percent with Penile Erections (Male Sprague-Dawley rats [2]; [8]): 0%; Effect on erectile behavior induced by Ac-Nle-cyclo(-Asp-His-D-Phe-Arg-Trp-Lys)-OH, in words (Male Sprague-Dawley rats [2]; rats, antagonist IV before IN agonist): blocked; Percent PE Inhibition (Male Sprague-Dawley rats [3]; antagonist 200 μg/kg IV): 100% |
| Ac-Nle-Ala-His-D-Phe-Arg-Cys-Trp-NH2 ({Ac-Nle-Ala-H2N}-[dF]RCW-NH2; also: ReO complex) |  |  |  |  |  |  | inactive in inducing PEs |  |  | % Inhibition of Binding hMC4-R (MC4-R [4]; 10 μM Re-complexed peptide): 29%; % Inhibition of Binding MC1-R (MC1-R [5]; 10 μM Re-complexed peptide): 97%; Mean Penile Erections/Rat (Male Sprague-Dawley rats [6]; IV 10 μg/kg): 0; Mean Penile Erections/Rat (Male Sprague-Dawley rats [6]; IV 50 μg/kg): 0; % Inhibition of Binding hMC5-R (hMC5-R; 10 μM Re-complexed peptide): 22%; Functional activity at MC1-R (cAMP accumulation) (MC1-R [7]): MC1-R specific agonist; % Inhibition of Binding hMC3-R (hMC3-R; 10 μM Re-complexed peptide): 14% |
| D-(N-Bzl)Nal 2′-Arg-Trp-Cys-NH2 | MC4-R antagonists | 14.28 | 100 | 99 | 34 | 0 | inactive in inducing PEs | 95 | 51 |  |
